Experimental data taken from patent US20240210412A1, “SULFONYL-TRIAZOLE COMPOUNDS USEFUL AS LIGANDS AND INHIBITORS OF PROSTAGLANDIN REDUCTASE 2” (University of Virginia Patent Foundation, priority 2021, published 2024).

Experiments:
Assay in all cases: SILAC LC-MS ABPP
Type in all cases: cell-based
Details in all cases: 25 μM 2 h, live DM93 cells
Q9HAU0 = target: T1, Q9HAU0 (Homo sapiens, UniProt Q9HAU0)
T1 construct: endogenous in cells; host or cells: DM93 cells (SILAC), treated live; soluble proteome analysed
T1 sequence (Q9HAU0 whole entry): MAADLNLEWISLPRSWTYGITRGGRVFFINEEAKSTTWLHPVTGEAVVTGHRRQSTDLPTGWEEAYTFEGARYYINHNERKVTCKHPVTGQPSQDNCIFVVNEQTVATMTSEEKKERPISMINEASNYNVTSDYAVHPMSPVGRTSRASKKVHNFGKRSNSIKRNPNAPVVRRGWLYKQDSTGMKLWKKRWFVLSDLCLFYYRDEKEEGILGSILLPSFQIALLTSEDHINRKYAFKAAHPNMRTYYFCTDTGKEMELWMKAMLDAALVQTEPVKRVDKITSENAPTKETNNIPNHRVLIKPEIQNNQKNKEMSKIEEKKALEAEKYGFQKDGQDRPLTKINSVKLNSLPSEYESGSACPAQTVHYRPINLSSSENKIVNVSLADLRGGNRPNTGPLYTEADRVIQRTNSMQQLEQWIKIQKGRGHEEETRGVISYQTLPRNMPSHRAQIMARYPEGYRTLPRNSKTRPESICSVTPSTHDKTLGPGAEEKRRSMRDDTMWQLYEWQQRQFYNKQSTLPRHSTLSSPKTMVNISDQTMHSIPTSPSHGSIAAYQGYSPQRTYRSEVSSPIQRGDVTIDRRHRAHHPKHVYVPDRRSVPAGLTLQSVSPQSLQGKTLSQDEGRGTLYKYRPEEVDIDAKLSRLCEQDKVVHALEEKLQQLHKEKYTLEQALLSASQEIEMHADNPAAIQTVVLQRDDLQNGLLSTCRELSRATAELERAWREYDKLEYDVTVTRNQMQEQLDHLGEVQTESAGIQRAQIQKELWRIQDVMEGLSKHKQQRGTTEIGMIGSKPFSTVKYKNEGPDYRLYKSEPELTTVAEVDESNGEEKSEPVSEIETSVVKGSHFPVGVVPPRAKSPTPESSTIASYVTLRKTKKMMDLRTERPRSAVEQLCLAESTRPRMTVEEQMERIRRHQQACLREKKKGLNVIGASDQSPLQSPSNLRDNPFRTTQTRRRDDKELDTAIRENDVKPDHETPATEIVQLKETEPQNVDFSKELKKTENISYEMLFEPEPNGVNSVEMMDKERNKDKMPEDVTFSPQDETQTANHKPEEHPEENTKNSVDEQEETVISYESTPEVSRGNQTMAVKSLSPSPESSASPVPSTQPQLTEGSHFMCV
Outline: (§1)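 First, heavy-labelled DM93 cells were exposed to SuTEx ligand (25 μM) and light cells to DMSO, 2 h at 37 °C. Second, HHS-475 (100 μM) was added for 2 h. Third, soluble lysates were clicked to desthiobiotin-azide, pooled 1:1, trypsin-digested, avidin-enriched and analysed by LC-MS/MS.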

Q13535 = target: T2, Q13535 (Homo sapiens, UniProt Q13535)
T2 construct: performing SuTEx compound screening directly in cells; endogenous in cells; host or cells: DM93 cells (SILAC), soluble fraction
Outline: as §1

P55795 = target: T3, P55795 (Homo sapiens, UniProt P55795)
T3 construct: Probe-modified proteins from the soluble fraction were conjugated to a desthiobiotin-azide tag; endogenous in cells; host or cells: DM93 cells (SILAC)
T3 sequence (P55795 whole entry): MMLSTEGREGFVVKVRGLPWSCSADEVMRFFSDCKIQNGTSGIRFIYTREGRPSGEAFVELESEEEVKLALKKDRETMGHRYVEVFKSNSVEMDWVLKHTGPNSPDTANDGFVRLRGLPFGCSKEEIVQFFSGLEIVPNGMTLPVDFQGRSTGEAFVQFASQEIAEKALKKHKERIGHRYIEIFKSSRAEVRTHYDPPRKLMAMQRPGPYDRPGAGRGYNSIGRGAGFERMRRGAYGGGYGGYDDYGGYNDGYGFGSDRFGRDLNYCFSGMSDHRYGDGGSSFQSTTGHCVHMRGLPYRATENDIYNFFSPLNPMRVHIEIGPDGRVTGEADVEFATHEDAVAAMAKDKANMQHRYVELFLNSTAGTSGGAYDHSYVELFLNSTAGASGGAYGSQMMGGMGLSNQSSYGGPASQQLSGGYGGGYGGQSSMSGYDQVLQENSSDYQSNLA
Outline: as §1

Q15020 = target: T4, Q15020 (Homo sapiens, UniProt Q15020)
T4 construct: performing SuTEx compound screening directly in cells; endogenous in cells; host or cells: DM93 cells (SILAC), soluble fraction
Outline: as §1

P08238 = target: T5, P08238 (Homo sapiens, UniProt P08238)
T5 construct: endogenous in cells; host or cells: DM93 cells (SILAC)
Outline: as §1

O60828 = target: T6, O60828 (Homo sapiens, UniProt O60828)
T6 construct: endogenous in cells; host or cells: DM93
T6 sequence (O60828 whole entry): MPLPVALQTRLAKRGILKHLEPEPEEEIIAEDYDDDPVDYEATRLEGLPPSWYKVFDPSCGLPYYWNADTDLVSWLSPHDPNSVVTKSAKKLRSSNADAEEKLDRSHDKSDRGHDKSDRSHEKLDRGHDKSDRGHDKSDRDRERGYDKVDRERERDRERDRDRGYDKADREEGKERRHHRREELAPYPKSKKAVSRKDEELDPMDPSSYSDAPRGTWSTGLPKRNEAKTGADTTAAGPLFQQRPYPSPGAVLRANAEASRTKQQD
Outline: as §1

P04040 = target: T7, P04040 (Homo sapiens, UniProt P04040)
T7 construct: endogenous in cells; host or cells: DM93 cells (SILAC)
Outline: as §1

P68371 = target: T8, P68371 (Homo sapiens, UniProt P68371)
T8 construct: performing SuTEx compound screening directly in cells; endogenous in cells; host or cells: DM93 cells (SILAC)
T8 sequence (P68371 whole entry): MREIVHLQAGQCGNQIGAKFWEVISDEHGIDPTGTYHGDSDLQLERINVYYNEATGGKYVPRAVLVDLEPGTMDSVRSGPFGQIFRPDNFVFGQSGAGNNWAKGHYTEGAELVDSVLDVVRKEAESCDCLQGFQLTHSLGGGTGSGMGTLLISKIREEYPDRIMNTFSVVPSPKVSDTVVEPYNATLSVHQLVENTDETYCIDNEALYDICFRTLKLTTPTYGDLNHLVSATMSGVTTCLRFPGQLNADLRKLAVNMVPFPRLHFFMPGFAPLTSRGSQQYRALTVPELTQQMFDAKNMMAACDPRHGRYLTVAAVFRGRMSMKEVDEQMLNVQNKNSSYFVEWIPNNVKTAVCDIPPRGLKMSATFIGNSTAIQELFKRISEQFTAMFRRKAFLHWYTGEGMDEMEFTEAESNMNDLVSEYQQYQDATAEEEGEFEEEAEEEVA
T8 sequence (P68363 whole entry partner): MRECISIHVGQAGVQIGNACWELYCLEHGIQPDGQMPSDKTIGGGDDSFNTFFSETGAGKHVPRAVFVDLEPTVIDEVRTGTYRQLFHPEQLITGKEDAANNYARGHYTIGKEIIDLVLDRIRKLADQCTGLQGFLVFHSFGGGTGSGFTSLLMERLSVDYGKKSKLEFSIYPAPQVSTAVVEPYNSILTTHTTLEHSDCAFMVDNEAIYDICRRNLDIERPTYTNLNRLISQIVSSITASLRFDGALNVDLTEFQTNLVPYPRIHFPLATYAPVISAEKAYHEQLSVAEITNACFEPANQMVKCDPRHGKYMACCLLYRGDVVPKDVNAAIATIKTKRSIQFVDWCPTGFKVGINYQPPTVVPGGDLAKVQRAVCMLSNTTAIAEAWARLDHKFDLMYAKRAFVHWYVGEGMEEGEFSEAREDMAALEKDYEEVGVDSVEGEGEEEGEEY
Outline: as §1

O94925 = target: T9, O94925 (Homo sapiens, UniProt O94925)
T9 construct: endogenous in cells; host or cells: DM93 cells (SILAC)
T9 sequence (O94925 55-669): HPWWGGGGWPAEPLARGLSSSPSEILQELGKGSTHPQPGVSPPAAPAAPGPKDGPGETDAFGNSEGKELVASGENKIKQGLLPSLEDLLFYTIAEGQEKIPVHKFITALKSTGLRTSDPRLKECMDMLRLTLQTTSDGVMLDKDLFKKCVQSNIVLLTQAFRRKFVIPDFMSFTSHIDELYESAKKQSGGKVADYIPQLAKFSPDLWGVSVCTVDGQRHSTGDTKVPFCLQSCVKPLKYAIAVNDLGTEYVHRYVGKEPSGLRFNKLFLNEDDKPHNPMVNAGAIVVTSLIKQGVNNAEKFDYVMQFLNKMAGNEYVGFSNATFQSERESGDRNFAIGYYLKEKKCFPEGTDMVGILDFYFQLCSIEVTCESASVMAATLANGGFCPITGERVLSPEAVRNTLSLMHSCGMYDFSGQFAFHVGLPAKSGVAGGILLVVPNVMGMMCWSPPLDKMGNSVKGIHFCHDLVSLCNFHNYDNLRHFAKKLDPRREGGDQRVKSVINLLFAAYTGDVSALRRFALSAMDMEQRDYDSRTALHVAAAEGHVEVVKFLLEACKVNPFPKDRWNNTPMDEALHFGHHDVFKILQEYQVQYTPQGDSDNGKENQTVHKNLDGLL
Outline: as §1

P15559 = target: T10, P15559 (Homo sapiens, UniProt P15559)
T10 construct: endogenous in cells; host or cells: DM93 cells (SILAC)
T10 sequence (P15559 whole entry): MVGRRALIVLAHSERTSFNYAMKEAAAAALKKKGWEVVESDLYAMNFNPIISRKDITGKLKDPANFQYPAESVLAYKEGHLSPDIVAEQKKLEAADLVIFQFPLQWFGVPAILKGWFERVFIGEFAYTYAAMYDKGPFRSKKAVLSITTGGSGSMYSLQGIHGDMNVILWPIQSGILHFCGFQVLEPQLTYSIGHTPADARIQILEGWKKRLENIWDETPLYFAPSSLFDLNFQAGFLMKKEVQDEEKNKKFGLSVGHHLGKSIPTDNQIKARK
Outline: as §1

O43823 = target: T11, O43823 (Homo sapiens, UniProt O43823)
T11 construct: endogenous in cells; host or cells: DM93
Outline: as §1

P57081 = target: T12, P57081 (Homo sapiens, UniProt P57081)
T12 construct: Probe-modified proteins from the soluble fraction were conjugated to a desthiobiotin-azide tag; endogenous in cells; host or cells: DM93 cells (SILAC)
Outline: as §1

P14550 = target: T13, P14550 (Homo sapiens, UniProt P14550)
T13 construct: endogenous in cells; host or cells: DM93 cells (SILAC)
T13 sequence (P14550 whole entry): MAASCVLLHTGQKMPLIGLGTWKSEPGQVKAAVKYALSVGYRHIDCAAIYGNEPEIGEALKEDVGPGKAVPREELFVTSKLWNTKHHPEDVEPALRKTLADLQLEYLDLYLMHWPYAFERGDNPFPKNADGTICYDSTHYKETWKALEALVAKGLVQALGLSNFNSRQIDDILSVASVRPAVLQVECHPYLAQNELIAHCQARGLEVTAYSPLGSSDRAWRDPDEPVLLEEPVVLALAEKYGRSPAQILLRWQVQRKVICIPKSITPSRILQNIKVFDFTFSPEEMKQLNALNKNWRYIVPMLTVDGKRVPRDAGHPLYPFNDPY
Outline: as §1

P54578 = target: T14, P54578 (Homo sapiens, UniProt P54578)
T14 construct: endogenous in cells; host or cells: DM93 cells (SILAC)
Outline: as §1

P42704 = target: T15, P42704 (Homo sapiens, UniProt P42704)
T15 construct: endogenous in cells; host or cells: DM93 cells (SILAC)
Outline: as §1

Q9C0C2 = target: T16, Q9C0C2 (Homo sapiens, UniProt Q9C0C2)
T16 construct: endogenous in cells; host or cells: DM93 cells (SILAC), treated live; soluble proteome analysed
Outline: as §1

P22059 = target: T17, P22059 (Homo sapiens, UniProt P22059)
T17 construct: endogenous in cells; host or cells: DM93 (SILAC)
T17 sequence (P22059 whole entry): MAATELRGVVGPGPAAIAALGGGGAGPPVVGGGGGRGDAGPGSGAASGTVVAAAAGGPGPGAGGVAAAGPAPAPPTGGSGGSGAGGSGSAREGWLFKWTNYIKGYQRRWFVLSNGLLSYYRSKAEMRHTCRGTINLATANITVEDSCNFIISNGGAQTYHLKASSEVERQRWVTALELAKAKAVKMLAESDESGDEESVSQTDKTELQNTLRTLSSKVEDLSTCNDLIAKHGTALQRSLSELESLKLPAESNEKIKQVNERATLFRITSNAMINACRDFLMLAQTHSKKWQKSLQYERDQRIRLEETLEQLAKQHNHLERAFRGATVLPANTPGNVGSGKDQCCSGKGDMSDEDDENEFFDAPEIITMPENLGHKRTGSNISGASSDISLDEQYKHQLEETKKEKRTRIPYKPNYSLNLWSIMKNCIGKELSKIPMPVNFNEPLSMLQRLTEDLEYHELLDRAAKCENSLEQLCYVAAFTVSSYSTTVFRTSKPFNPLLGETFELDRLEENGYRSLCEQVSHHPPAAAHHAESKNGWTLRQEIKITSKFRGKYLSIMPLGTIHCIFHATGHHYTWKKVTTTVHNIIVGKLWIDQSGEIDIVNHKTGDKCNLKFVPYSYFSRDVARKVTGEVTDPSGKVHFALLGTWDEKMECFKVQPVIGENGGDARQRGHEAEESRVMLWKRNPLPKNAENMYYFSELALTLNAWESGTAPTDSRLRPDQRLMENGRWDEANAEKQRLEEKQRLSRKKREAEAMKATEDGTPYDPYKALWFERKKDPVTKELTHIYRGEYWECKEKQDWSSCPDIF
Outline: as §1

P24534 = target: T18, P24534 (Homo sapiens, UniProt P24534)
T18 construct: endogenous in cells; host or cells: DM93 (SILAC)
T18 sequence (P24534 whole entry): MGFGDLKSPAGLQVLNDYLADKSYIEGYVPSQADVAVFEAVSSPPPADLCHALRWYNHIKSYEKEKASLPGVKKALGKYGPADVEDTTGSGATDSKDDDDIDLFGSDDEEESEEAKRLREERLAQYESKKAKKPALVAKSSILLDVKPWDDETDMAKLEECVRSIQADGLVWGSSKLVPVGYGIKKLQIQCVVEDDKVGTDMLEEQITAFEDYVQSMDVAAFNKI
Outline: as §1

## O=C(c1ccc(S(=O)(=O)n2cncn2)cc1)N1CCC(c2ccccc2)CC1 [HHS-0701, (4-((1H-1,2,4-triazol-1-yl)sulfonyl)phenyl)(4-phenylpiperidin-1-yl)methanone]
Q9HAU0
  liganded tyrosine site 553: HHS0701.Y (tyrosine sites that showed >80% reductions (SR >5) in probe labeling in cells treated with compounds (liganded sites))
Q13535
  liganded tyrosine site 2067: HHS0701.Y (tyrosine sites that showed >80% reductions (SR >5) in probe labeling in cells treated with compounds (liganded sites))
P55795
  liganded tyrosine site 240: HHS0701.Y (tyrosine sites that showed >80% reductions (SR >5) in probe labeling in cells treated with compounds (liganded sites))
  liganded tyrosine site 243: HHS0701.Y (tyrosine sites that showed >80% reductions (SR >5) in probe labeling in cells treated with compounds (liganded sites))

## O=C(NC1CC1)c1ccc(S(=O)(=O)n2cncn2)cc1 [HHS-0101, 4-((1H-1,2,4-triazol-1-yl)sulfonyl)-N-cyclopropylbenzamide]
Q15020
  liganded tyrosine site 541: HHS0101.Y|HHS0201.Y|HHS0301.Y|HHS0401.Y|HHS0701.Y (tyrosine sites that showed >80% reductions (SR >5) in probe labeling in cells treated with compounds (liganded sites))
P08238
  liganded tyrosine site 430: HHS0101.Y|HHS0201.Y|HHS0301.Y|HHS0401.Y (tyrosine sites that showed >80% reductions (SR >5) in probe labeling in cells treated with compounds (liganded sites))
O60828
  liganded tyrosine site 209: HHS0101.Y|HHS0401.Y (tyrosine sites that showed >80% reductions (SR >5) in probe labeling in cells treated with compounds (liganded sites))
P04040
  liganded tyrosine site 358: HHS0101.Y|HHS0201.Y|HHS0301.Y|HHS0701.Y (tyrosine sites that showed >80% reductions (SR >5) in probe labeling in cells treated with compounds (liganded sites))
P68371
  liganded tyrosine site 50: HHS0101.Y (tyrosine sites that showed >80% reductions (SR >5) in probe labeling in cells treated with compounds (liganded sites))
O94925
  liganded tyrosine site 145: HHS0101.Y (tyrosine sites that showed >80% reductions (SR >5) in probe labeling in cells treated with compounds (liganded sites))
  liganded tyrosine site 304: HHS0101.Y (tyrosine sites that showed >80% reductions (SR >5) in probe labeling in cells treated with compounds (liganded sites))

## O=C(NCc1ccccc1)c1ccc(S(=O)(=O)n2cncn2)cc1 [HHS-0401, 4-((1H-1,2,4-triazol-1-yl)sulfonyl)-N-benzylbenzamide]
P15559
  liganded tyrosine site 76: HHS0401.Y|HHS0701.Y (tyrosine sites that showed >80% reductions (SR >5) in probe labeling in cells treated with compounds (liganded sites))
O43823
  liganded tyrosine site 436: HHS0401.Y (tyrosine sites that showed >80% reductions (SR >5) in probe labeling in cells treated with compounds (liganded sites))
P57081
  liganded tyrosine site 371: HHS0401.Y (tyrosine sites that showed >80% reductions (SR >5) in probe labeling in cells treated with compounds (liganded sites))
P14550
  liganded tyrosine site 135: HHS0401.Y (tyrosine sites that showed >80% reductions (SR >5) in probe labeling in cells treated with compounds (liganded sites))

## O=C(NCC1CC1)c1ccc(S(=O)(=O)n2cncn2)cc1 [HHS-0201, 4-((1H-1,2,4-triazol-1-yl)sulfonyl)-N-(cyclopropylmethyl)benzamide]
P54578
  liganded tyrosine site 401: HHS0201.Y (tyrosine sites that showed >80% reductions (SR >5) in probe labeling in cells treated with compounds (liganded sites))
P42704
  liganded tyrosine site 1365: HHS0201.Y (tyrosine sites that showed >80% reductions (SR >5) in probe labeling in cells treated with compounds (liganded sites))
Q9C0C2
  liganded tyrosine site 897: HHS0201.Y|HHS0301.Y|HHS0401.Y|HHS0701.Y (tyrosine sites that showed >80% reductions (SR >5) in probe labeling in cells treated with compounds (liganded sites))
P22059
  liganded tyrosine site 764: HHS0201.Y|HHS0701.Y (tyrosine sites that showed >80% reductions (SR >5) in probe labeling in cells treated with compounds (liganded sites))
P24534
  liganded tyrosine site 18: HHS0201.Y|HHS0401.Y|HHS0701.Y (tyrosine sites that showed >80% reductions (SR >5) in probe labeling in cells treated with compounds (liganded sites))
